Source: patent publication US8501940B2, “Tetrahydrocinnoline derivatives” (Hoffmann-La Roche Inc., priority 2008, dated 2013)

These compounds were tested against T1, human 11beta-HSD1 (Homo sapiens, UniProt P28845) (assay: Microsome assay (cortisone to cortisol conversion, ELISA detection)). Settings: microsomes from HEK293 cells transiently expressing human 11beta-HSD1; Cortisone 50-200 nM, NADPH 1 mM; 60 min at 37° C.; cortisol by ELISA; read-out: h 11-beta-HSD 1 IC50.
T1 construct: made in house; host or cells: HEK293 cells (ATCC CRL-1573), transient transfection with a pcDNA3 construct; microsomal fraction used
Type: biochemical
Experimental: The cDNA encoding the human 11beta-HSD1 protein was cloned into the expression vector pcDNA3 (Stratagene). This construct (for details see Alex Odermatt et al.; J Biol Chem., 1999, Vol. 274, Issue 40, 28762-28770) was used to transiently express the protein in HEK293 cells (ATCC number: CRL-1573, described in Graham, F. L., Smiley, J., Russell, W. C., Nairn, R.; (1977)) using lipofectamine. 48 h after transfection cells were washed twice with ice-cold PBS (Phosphate buffered Saline). To 1 volume of cell suspension in PBS 2 volumes of ice-cold lysis buffer (50 mM Tris; pH7.5; 1 mM EDTA; 100 mM NaCl) were added. The cells were lysed by Potter-homogenization (20 strokes). The resulting homogenate was sonicated with a tip sonicator (10% output; 2×30 sec.) and cleared by a low speed centrifugation (10 min×9000 g; 4° C.). The microsomal fraction was collected by a high speed centrifugation (60 min×110,000 g). The resulting pellet was resuspended in storage buffer (20 mM Tris pH 7.5; 1 mM EDTA; 10% Glycerol) and the centrifugation was repeated. The resulting pellet containing the microsomal fraction was again taken up into storage buffer and aliquots were kept frozen in liquid Nitrogen until use.
Microsomes isolated from HEK293 cells transiently expressing human 11beta-HSD1 (for details see above) were incubated in assay buffer (100 mM NaCl; 1 mM EDTA; 1 mM EGTA; 1 mM MgCl; 250 mM Sucrose; 20 mM Tris pH 7.4; Cortisone 50-200 nM and NADPH 1 mM) together with different concentrations of test substances. After 60 min. of incubation at 37° C. the assay was stopped by heating to 80° C. (5 min.) and by addition of the inhibitor Carbenoxolone (1 uM). The amount of Cortisol produced in this assay was determined using a commercially available, ELISA-based Cortisol-detection kit (Distributed by Assay Design, Inc.). Inhibitors were characterized by there IC50 values, e.g. the concentration at which the production of cortisol was 50% reduced.

T1 sequence (P28845 whole entry): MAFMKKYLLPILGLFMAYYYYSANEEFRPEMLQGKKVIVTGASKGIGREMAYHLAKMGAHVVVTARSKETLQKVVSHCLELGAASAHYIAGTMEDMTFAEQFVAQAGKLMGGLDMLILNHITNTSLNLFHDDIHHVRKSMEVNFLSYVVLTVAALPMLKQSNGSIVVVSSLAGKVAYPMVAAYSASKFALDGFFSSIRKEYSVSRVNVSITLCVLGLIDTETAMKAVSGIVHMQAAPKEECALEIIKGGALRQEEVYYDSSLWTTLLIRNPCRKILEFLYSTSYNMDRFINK

Structure (SMILES)	IC50 [pM]
CC1(Cc2cc3c(nn2)[C@H]2CC[C@@H]3C2(C)C)CC1 (racemic) [Example 16, (5RS,8SR)-9,9-dimethyl-3-[(1-methylcyclopropyl)methyl]-5,6,7,8-tetrahydro-5,8-methanocinnoline]	1
CC1(Cc2cc3c(nn2)[C@H]2CC[C@@H]3C2)CC1 (racemic) [Example 18, (5RS,8SR)-3-[(1-methylcyclopropyl)methyl]-5,6,7,8-tetrahydro-5,8-methanocinnoline]	37
CC(C)(C)Cc1cc2c(nn1)C1CCC2C12CC2 (single isomer, unassigned) [Example 1b, (5′S,8′R)-3′-(2,2-dimethylpropyl)-5′,6′,7′,8′-tetrahydrospiro[cyclopropane-1,9′-[1′,2′]diaza[5′,8′]methanocinnoline]]	1
CC(C)(C)c1cc2c(nn1)C1CCC2C12CC2 (single isomer, unassigned) [Example 2a, (5′R,8′S)-3′-tert-butyl-5′,6′,7′,8′-tetrahydrospiro[cyclopropane-1,9′-[1′,2′]diaza[5′,8′]methanocinnoline]]	11
CC(C)(C)c1cc2c(nn1)C1CCC2C12CC2 (single isomer, unassigned) [Example 2b, (5′S,8′R)-3′-tert-butyl-5′,6′,7′,8′-tetrahydrospiro[cyclopropane-1,9′-[1′,2′]diaza[5′,8′]methanocinnoline]]	13
c1c(C2CC2)nnc2c1C1CCC2C12CC2 (single isomer, unassigned) [Example 5a, (5′R,8′S)-3′-cyclopropyl-5′,6′,7′,8′-tetrahydrospiro[cyclopropane-1,9′-[1′,2′]diaza[5′,8′]methanocinnoline]]	566
CC(C)(C)Cc1cc2c(nn1)C1CCC2C12CC2 (stereo not drawn) [Example 1, (5′RS,8′SR)-3′-(2,2-dimethylpropyl)-5′,6′,7′,8′-tetrahydrospiro[cyclopropane-1,9′-[1′,2′]diaza[5′,8′]methanocinnoline]]	3
CC(C)(C)Cc1cc2c(nn1)[C@H]1CC[C@@H]2C12CC2 [Example 1a, (5′R,8′S)-3′-(2,2-dimethylpropyl)-5′,6′,7′,8′-tetrahydrospiro[cyclopropane-1,9′-[1′,2′]diaza[5′,8′]methanocinnoline]]	4
CC(C)(C)c1cc2c(nn1)C1CCC2C12CC2 (stereo not drawn) [Example 2, (5′RS,8′SR)-3′-tert-butyl-5′,6′,7′,8′-tetrahydrospiro[cyclopropane-1,9′-[1′,2′]diaza[5′,8′]methanocinnoline]]	20
CC1(Cc2cc3c(nn2)C2CCC3C23CC3)CC1 (stereo not drawn) [Example 3, (5′RS,8′SR)-3′-[(1-methylcyclopropyl)methyl]-5′,6′,7′,8′-tetrahydrospiro[cyclopropane-1,9′-[1′,2′]diaza[5′,8′]methanocinnoline]]	6
CC1(c2cc3c(nn2)C2CCC3C23CC3)CC1 (stereo not drawn) [Example 4, (5′RS,8′SR)-3′-(1-methylcyclopropyl)-5′,6′,7′,8′-tetrahydrospiro[cyclopropane-1,9′-[1′,2′]diaza[5′,8′]methanocinnoline]]	58
c1c(C2CC2)nnc2c1C1CCC2C12CC2 (stereo not drawn) [Example 5, (5′RS,8′SR)-3′-cyclopropyl-5′,6′,7′,8′-tetrahydrospiro[cyclopropane-1,9′-[1′,2′]diaza[5′,8′]methanocinnoline]]	603
c1c(C2CC2)nnc2c1[C@H]1CC[C@@H]2C12CC2 [Example 5b, (5′S,8′R)-3′-cyclopropyl-5′,6′,7′,8′-tetrahydrospiro[cyclopropane-1,9′-[1′,2′]diaza[5′,8′]methanocinnoline]]	382
Cc1c(C2CC2)nnc2c1C1CCC2C12CC2 (stereo not drawn) [Example 6, (5′RS,8′SR)-3′-cyclopropyl-4′-methyl-5′,6′,7′,8′-tetrahydrospiro[cyclopropane-1,9′-[1′,2′]diaza[5′,8′]methanocinnoline]]	35
c1c(C2CC2)nnc2c1C1CCC2CC1 [Example 7, 3-Cyclopropyl-5,6,7,8-tetrahydro-5,8-ethanocinnoline]	47
CC1(Cc2cc3c(nn2)C2CCC3CC2)CC1 [Example 8, 3-[(1-Methylcyclopropyl)methyl]-5,6,7,8-tetrahydro-5,8-ethanocinnoline]	6

Structure (SMILES)	IC50 [pM]
CC(C)(C)Cc1cc2c(nn1)C1CCC2CC1 [Example 9, 3-(2,2-Dimethylpropyl)-5,6,7,8-tetrahydro-5,8-ethanocinnoline]	1
CC(C)(C)c1cc2c(nn1)C1CCC2CC1 [Example 10, 3-Tert-butyl-5,6,7,8-tetrahydro-5,8-ethanocinnoline]	2
CC1(c2cc3c(nn2)C2CCC3C23CCCC3)CC1 (stereo not drawn) [Example 11, (5′RS,8′SR)-3′-(1-methylcyclopropyl)-5′,6′,7′,8′-tetrahydrospiro[cyclopentane-1,9′-[1′,2′]diaza[5′,8′]methanocinnoline]]	2
CC1(Cc2cc3c(nn2)C2CCC3C23CCCC3)CC1 (stereo not drawn) [Example 12, (5′RS,8′SR)-3′-[(1-methylcyclopropyl)methyl]-5′,6′,7′,8′-tetrahydrospiro[cyclopentane-1,9′-[1′,2′]diaza[5′,8′]methanocinnoline]]	1
CC(C)(C)Cc1cc2c(nn1)C1CCC2C12CCCC2 (stereo not drawn) [Example 13, (5′RS,8′SR)-3′-(2,2-dimethylpropyl)-5′,6′,7′,8′-tetrahydrospiro[cyclopentane-1,9′-[1′,2′]diaza[5′,8′]methanocinnoline]]	1
CC(C)(C)c1cc2c(nn1)C1CCC2C12CCCC2 (stereo not drawn) [Example 14, (5′RS,8′SR)-3′-tert-butyl-5′,6′,7′,8′-tetrahydrospiro[cyclopentane-1,9′-[1′,2′]diaza[5′,8′]methanocinnoline]]	2
c1c(C2CC2)nnc2c1C1CCC2C12CCCC2 (stereo not drawn) [Example 15, (5′RS,8′SR)-3′-cyclopropyl-5′,6′,7′,8′-tetrahydrospiro[cyclopentane-1,9′-[1′,2′]diaza[5′,8′]methanocinnoline]]	13
CC1(Cc2cc3c(nn2)[C@@]2(C)CC[C@@H]3C2(C)C)CC1 [Example 17, (5R,8S)-8,9,9-trimethyl-3-[(1-methylcyclopropyl)methyl]-5,6,7,8-tetrahydro-5,8-methanocinnoline]	1
Fc1ccc(-c2cc3c(nn2)C2CCC3C23CC3)c(C(F)(F)F)c1 (stereo not drawn) [Example 19, (5′RS,8′SR)-3′-[4-fluoro-2-(trifluoromethyl)phenyl]-5′,6′,7′,8′-tetrahydrospiro[cyclopropane-1,9′-[1′,2′]diaza[5′,8′]methanocinnoline]]	2
Cc1c(-c2cc3c(nn2)C2CCC3C23CC3)cnn1-c1ccccc1 (stereo not drawn) [Example 20, (5′RS,8′SR)-3′-(5-methyl-1-phenyl-1H-pyrazol-4-yl)-5′,6′,7′,8′-tetrahydrospiro[cyclopropane-1,9′-[1′,2′]diaza[5′,8′]methanocinnoline]]	89
Fc1ccc(-c2cc3c(nn2)C2CCC3C23CC3)c(Cl)c1 (stereo not drawn) [Example 21, (5′RS,8′SR)-3′-(2-chloro-4-fluorophenyl)-5′,6′,7′,8′-tetrahydrospiro[cyclopropane-1,9′-[1′,2′]diaza[5′,8′]methanocinnoline]]	7
FC(F)(F)c1ccccc1-c1cc2c(nn1)C1CCC2C12CC2 (stereo not drawn) [Example 22, (5′RS,8′SR)-3′-[2-(trifluoromethyl)phenyl]-5′,6′,7′,8′-tetrahydrospiro[cyclopropane-1,9′-[1′,2′]diaza[5′,8′]methanocinnoline]]	1
Cc1c(-c2cc3c(nn2)C2CCC3C23CC3)cnn1C(C)(C)C (stereo not drawn) [Example 23, (5′RS,8′SR)-3′-(1-tert-butyl-5-methyl-1H-pyrazol-4-yl)-5′,6′,7′,8′-tetrahydrospiro[cyclopropane-1,9′-[1′,2′]diaza[5′,8′]methanocinnoline]]	95
FC(F)(F)c1ccc(Cl)cc1-c1cc2c(nn1)C1CCC2C12CC2 (stereo not drawn) [Example 24, (5′RS,8′SR)-3′-[5-chloro-2-(trifluoromethyl)phenyl]-5′,6′,7′,8′-tetrahydrospiro[cyclopropane-1,9′-[1′,2′]diaza[5′,8′]methanocinnoline]]	40
Fc1ccc(-c2cc3c(nn2)C2CCC3CC2)c(C(F)(F)F)c1 [Example 25, 3-[4-fluoro-2-(trifluoromethyl)phenyl]-5,6,7,8-tetrahydro-5,8-ethanocinnoline]	1
Fc1ccc(-c2cc3c(nn2)C2CCC3C23CCCC3)c(C(F)(F)F)c1 (stereo not drawn) [Example 27, (5′RS,8′SR)-3′-[4-fluoro-2-(trifluoromethyl)phenyl]-5′,6′,7′,8′-tetrahydrospiro[cyclopentane-1,9′-[1′,2′]diaza[5′,8′]methanocinnoline]]	1
